“Also recorded” adds a separate entry of the source.
Test system: R1 protein
Test: Western blot of R1 protein in MDA-MB-231 cells
Format: cell-based, human
Details: SEQ ID NO:1 0.025-0.2 μM, controls 0.2 μM
Procedure: MDA-MB-231 human breast adenocarcinoma cells were treated with increasing concentrations (0.025-0.2 μM) of SEQ ID NO:1, 0.2 μM of a scrambled control analogue of SEQ ID NO:1 (SEQ ID NO:1 Scr) or a mismatched control analogue of SEQ ID NO:1 (SEQ ID NO:1 Mis) that contains four base changes. Cells were then washed and fresh media were added. Cells were harvested 8-18 hours later for protein extractions. Aliquots of cell extracts were heated at 100° C. for 5 minutes and then analyzed on sodium dodecyl sulfate-polyacrylamide gels (Choy et al., 1988). Proteins were then transferred to membranes. Membranes were blocked and then incubated with anti-R1 antibody for 1 hour at room temperature. Membranes were washed three times in cold TBS-Tween buffer followed by incubation for 30 minutes to 1 hour at room temperature in the presence of a second antibody (goat anti-rabbit immunoglobulin linked with horseradish peroxidase). Blots were washed and bound antibodies were detected by development of the […] reaction (Fan et al., 1996).

## 5′-CTCTAGCGTCTTAAAGCCGA-3′ (CTCTAGCGTCTTAAAGCCGA; chemistry not given here) [SEQ ID NO:1]
  R1 protein expression: specifically decreases R1 protein expression in a dose-dependent manner; also recorded: decreased R1 protein expression in a dose-dependent manner

Reference: US20070274947A1, “Antisense Oligonucleotides Directed to Ribonucleotide Reductase R1 and Uses Thereof in the Treatment of Cancer” (priority 2003, published 2007)
